How the values were obtained:
PSMA NAALADase activity = PSMA NAALADase activity (Homo sapiens, UniProt Q04609); test: NAALADase inhibition assay; type: biochemical
Procedure: These point mutant constructs were assessed for activity in terms of inhibition of PSMA NAALADase activity. The NAALADase assay was performed in 96 well format. PSMA aptamers were serially diluted in 1× reaction buffer (40 mM Tris-HCl, pH 7.4, 0.1 mM ZnSO4, 0.1 mg/in L BSA) in a standard 96 well plate to be tested at a final concentration range from 30 pM to 1 μM. The enzyme was prepared by diluting 30 μL of 100 nM PSMA into 8 mL of reaction buffer, and kept cool on ice. The substrate was prepared by adding 19 μl of NAAG [Glutamate-3,4-^3H], 50.8 Ci/mmol, 19.7 μM (Perkin-Elmer, Wellesley, Mass., NET1082) into 2.2 mL of reaction buffer.
Following preparation of all reagents, 4 μl of each serially diluted aptamer was added to a separate 96 well plate (the reaction plate). 76 μl of diluted enzyme was added to the corresponding wells containing aptamer. 80 μl of reaction buffer was added to one column of wells to serve as a background control. The diluted substrate and reaction plate were then moved to a room at 37° C. and allowed to equilibrate for 10 minutes. After temperature equilibration, 20 μl of the prepared substrate was added to each well using a 12 channel pipet for a final volume of 100 μl/well, and a final concentration of […] enzyme and 30 nM substrate per well. A column of wells containing enzyme and substrate only was used as a high control. The aptamer/enzyme/substrate reaction was incubated at 37° C. for 15 minutes, and stopped by the addition of 100 μl of quench buffer (100 mM sodium phosphate, pH 7.4, 2 mM EDTA).
To separate the cleavage products, […] and Glutamate, from the substrate, an AG 1-X8, 200-400 mesh, formate resin (BioRad, Hercules, Calif., # 140-1454) was used. The resin was prepared by forming a 1:1 slurry in H2O, and adding 140 μl per 96 well using a Multiscreen filter plate (Multiscreen, 1.2 μm filter plates (Millipore, Billerica, Mass., # MABVN1250)). […] The plate was sealed and read using a Packard Topcount Microplate Scintillation Counter. […]

LNCaP cells (PSMA+) = test: LNCaP FACS binding assay with fluorescein-labeled aptamers; type: cell-based; settings: relative to parent A9
Procedure: To prepare aptamers for the FACS assay, PSMA aptamers were serially diluted (0-1 uM) in FACS buffer (1×DPBS w/Ca^++/Mg^++ (Gibco, Carlsbad, Calif.) supplemented with 10 mg/mL salmon sperm DNA & 0.2% Na Azide), in a V-bottom 96 well plate, at the concentrations to be tested. LNCaP and PC-3 cells (ATCC, Manassas, Va.) were harvested with trypsin, and 200,000 cells/well were counted, washed once with 1×DPBS (with Ca^++ and Mg^+) and resuspended in 200 μl of FACS Buffer. The 200 μl of cells in FACS buffer were added to individual wells of a new 96 well plate, pelleted by centrifugation (1300 rpm for 5 minutes), and resuspended in 100 μl of the appropriate concentration of diluted aptamer. FACS buffer, a-PSMA antibody (3C6) (Northwest Biotherapeutics, Bothell, Wash., Cat #: 60-5002) and an irrelevant fluorescein isothiocyanate (“FITC”) mouse IgG1 isotype control antibody (BD Pharmingen, San Diego, Calif., Cat#: 554679) were used as controls. The wells of aptamer/cell mixture were incubated at room temperature for 20-30 minutes.
After incubation, 180 μl of FACS buffer (plus 10 mg/mL ssDNA, and 0.2% Na Azide) was added to each well to quench the reaction and cells were pelleted by centrifugation.
Anti-fluorescein/Oregon Green®, rabbit IgG fraction, Alexa Fluor® 488 conjugate (Molecular Probes, Eugene, Oreg., Cat#: A11090) was diluted 1:100 in FACS buffer (100 μl/well) as the secondary antibody for the aptamer-FITC conjugates and FITC-mouse IgG isotype control. FITC Rat anti-mouse IgG1 (A85-1) (BD Pharmingen, San Diego, Calif., Cat#: 553443) was diluted in 1:100 in FACS Buffer as the secondary for the α-PSMA antibody. After centrifugation, the cell pellets were resuspended in 100 μl of the appropriate diluted secondary antibody, and incubated 10 minutes at room temperature. After incubation, 180 μl of FACS buffer was added to each well to quench the reaction, and cells were pelleted by centrifugation.
A tertiary antibody which recognizes the Alexa Fluor® 488 goat anti-rabbit IgG was prepared to further amplify the Alexa Fluor signal. Alexa Fluor® 488 goat anti-rabbit IgG (H+ L) (Molecular Probes, Eugene, Oreg., Cat#: A11034) was diluted 1:100 in FACS buffer, and the pelleted cells were resupsended in 100 μl of the tertiary antibody and incubated for 10 minutes at room temperature. […]
Cell samples were analyzed on a FACS Scan machine (Becton Dickinson, San Jose, Calif.) under the following parameters: FSC/SSC, FL-1/FSC, FL-3/FSC. The unstained and/or isotype controls were used to establish gating parameters, and the data was analyzed using Cell Quest Pro software version 5.1.1 (Becton Dickinson Immunocytometry Systems, San Jose, Calif.).

PSMA NAALADase activity, sequence (Q04609 with tags, fused parts or gaps limits assumed): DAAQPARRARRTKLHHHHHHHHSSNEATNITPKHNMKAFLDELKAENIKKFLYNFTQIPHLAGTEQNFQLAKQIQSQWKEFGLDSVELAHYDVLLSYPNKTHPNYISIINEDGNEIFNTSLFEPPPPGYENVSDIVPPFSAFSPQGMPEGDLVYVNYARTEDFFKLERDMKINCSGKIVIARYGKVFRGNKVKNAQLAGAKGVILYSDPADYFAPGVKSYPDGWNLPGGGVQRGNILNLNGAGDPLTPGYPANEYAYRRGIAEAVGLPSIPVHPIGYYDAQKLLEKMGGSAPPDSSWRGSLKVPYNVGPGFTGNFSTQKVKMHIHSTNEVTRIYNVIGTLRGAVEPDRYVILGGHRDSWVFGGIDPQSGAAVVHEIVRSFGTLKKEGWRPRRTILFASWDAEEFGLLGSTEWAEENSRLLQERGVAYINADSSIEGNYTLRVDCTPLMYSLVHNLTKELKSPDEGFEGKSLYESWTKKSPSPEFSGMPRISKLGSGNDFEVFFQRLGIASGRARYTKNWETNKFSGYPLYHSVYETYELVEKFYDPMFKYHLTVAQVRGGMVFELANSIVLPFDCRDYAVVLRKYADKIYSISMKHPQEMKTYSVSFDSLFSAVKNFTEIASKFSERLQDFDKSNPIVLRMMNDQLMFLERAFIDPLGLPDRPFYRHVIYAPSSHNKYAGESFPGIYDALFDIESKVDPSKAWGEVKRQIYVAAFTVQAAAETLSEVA

In the case of “GGAGGAfCfCGAAAAAGAfCfCfUGAfCfUfUfCfUAfUAfCfUAAGfUfCfUAfCGfUfUfCfCfUfCfCA (GGAGGACCGAAAAAGACCUGACUUCUAUACUAAGUCUACGUUCCUCCA; 2'-fluoro at 7, 8, 17, 18, 19, 22, 23, 24, 25, 26, 28, 30, 31, 35, 36, 37, 39, 41, 42, 43, 44, 45, 46, 47, other sugars and backbone not given here) [ARC591, 48-nt minimer of A9]”, the IC50 (PSMA NAALADase activity; read-out: apparent IC50, inhibition of NAALADase activity) is reported as 6.7 nM, the “activity in the NAALADase inhibition assay” value (PSMA NAALADase activity; relative to parent) is reported as “retained full functional activity” and the “functional activity in the LNCaP FACS assay” value (LNCaP cells (PSMA+)) is reported as “retained full functional activity”.

From patent US20090105172A1, “Stabilized Aptamers to PSMA and Their Use as Prostate Cancer Therapeutics” (priority 2005, published 2009)
